# Values of other authors in patent US20090155335A1, “NON-LEACHING NON-FOULING ANTIMICROBIAL COATINGS” (priority 2007, published 2009).
# Test system: methicillin resistant and vancomycin intermediate-resistant Staphylococcus aureus
# Conditions: Dacron graft soaked in dermaseptin solution, rat
substance,measurement,value
dermaseptin,efficacy of released dermaseptin against resistant S. aureus,effective
